Results as given in ChEMBL document CHEMBL5244281, “Tackling multidrug-resistant Staphylococcus aureus by natural products and their analogues acting as NorA efflux pump inhibitors” (Bioorg Med Chem, 2023).
In brackets after ≈: the same amount, converted by molar mass.

Assays:
[1] = target: T1, Quinolone resistance protein NorA (Staphylococcus aureus) (UniProt P0A0J7); assay: Modulation of EtBr -induced inhibition of NorA efflux pump in Staphylococcus aureus 1199B overexpressing NorA efflux pump assessed as reduction in EtBr MIC at 1/4 times of MIC using EtBr as substrate by resazurin based assay
T1 sequence (whole entry): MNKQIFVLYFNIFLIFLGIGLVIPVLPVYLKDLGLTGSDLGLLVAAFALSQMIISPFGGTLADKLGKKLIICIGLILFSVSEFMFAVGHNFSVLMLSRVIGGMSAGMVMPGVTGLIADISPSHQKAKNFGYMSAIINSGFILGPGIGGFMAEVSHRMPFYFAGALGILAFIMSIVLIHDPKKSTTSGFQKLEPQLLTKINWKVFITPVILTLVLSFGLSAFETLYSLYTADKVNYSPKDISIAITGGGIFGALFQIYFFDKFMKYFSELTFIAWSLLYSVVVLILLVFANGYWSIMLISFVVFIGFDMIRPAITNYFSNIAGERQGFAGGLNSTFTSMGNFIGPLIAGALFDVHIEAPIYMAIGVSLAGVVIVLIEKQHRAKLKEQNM

[2] = target: T1, Quinolone resistance protein NorA (Staphylococcus aureus); assay: Modulation of norfloxacin-induced inhibition of NorA efflux pump in Staphylococcus aureus 1199B overexpressing NorA efflux pump assessed as reduction in norfloxacin MIC at 1/4 times of MIC by resazurin based assay
Staphylococcus aureus [3] = assay: Antibacterial activity against norfloxacin resistant Staphylococcus aureus 1199 assessed as bacterial growth inhibition incubated for 24 hrs by resazurin based broth microdilution method; type: functional
Staphylococcus aureus [4] = assay: Antibacterial activity against norfloxacin resistant Staphylococcus aureus 1199B overexpressing NorA assessed as bacterial growth inhibition incubated for 24 hrs by resazurin based broth microdilution method; type: functional
Staphylococcus aureus [5] = assay: Antibacterial activity against Staphylococcus aureus RN4220 assessed as bacterial growth inhibition incubated for 18 hrs by MTT assay; type: functional
Staphylococcus aureus [6] = assay: Antibacterial activity against tetracycline-resistant Staphylococcus aureus XU212 assessed as bacterial growth inhibition incubated for 18 hrs by MTT assay; type: functional
Staphylococcus aureus [7] = assay: Antibacterial activity against Staphylococcus aureus EMRSA-15 assessed as bacterial growth inhibition incubated for 18 hrs by MTT assay; type: functional
Staphylococcus aureus [8] = assay: Antibacterial activity against Staphylococcus aureus ATCC25923 assessed as bacterial growth inhibition incubated for 18 hrs by MTT assay; type: functional
Staphylococcus aureus [9] = assay: Antibacterial activity against Staphylococcus aureus 1199B overexpressing NorA assessed as bacterial growth inhibition incubated for 18 hrs by MTT assay; type: functional
Staphylococcus aureus [10] = assay: Antibacterial activity against methicillin-resistant Staphylococcus aureus 1199B overexpressing NorA gene assessed as bacterial growth inhibition; type: functional
[11] = target: T1, Quinolone resistance protein NorA (Staphylococcus aureus); assay: Potentiation of EtBr-induced inhibition of NorA efflux pump in Staphylococcus aureus 1199A assessed as reduction in EtBr MIC at 1/8 times of MIC incubated for 24 hrs by resazurin based broth microdilution method (Rvb=32 ug/ml)
[12] = target: T1, Quinolone resistance protein NorA (Staphylococcus aureus); assay: Potentiation of EtBr-induced inhibition of NorA efflux pump in Staphylococcus aureus 1199B overexpressing NorA efflux pump assessed as reduction in EtBr MIC at 1/8 times of MIC incubated for 24 hrs by resazurin based broth microdilution method (Rvb= 32 ug/ml)
[13] = target: T1, Quinolone resistance protein NorA (Staphylococcus aureus); assay: Potentiation of norfloxacin-induced inhibition of NorA efflux pump in Staphylococcus aureus 1199A assessed as reduction in norfloxacin MIC at 1/8 times of MIC incubated for 24 hrs by resazurin based broth microdilution method (Rvb= […] ug/ml)
[14] = target: T1, Quinolone resistance protein NorA (Staphylococcus aureus); assay: Potentiation of norfloxacin-induced inhibition of NorA efflux pump in Staphylococcus aureus 1199B overexpressing NorA efflux pump assessed as reduction in norfloxacin MIC at 1/8 times of MIC incubated for 24 hrs by resazurin based broth microdilution method (Rvb= 128 ug/ml)
Staphylococcus aureus [15] = assay: Antibacterial activity against NorA knockout Staphylococcus aureus K1758 assessed as bacterial growth inhibition incubated for 24 hrs by broth microdilution method; type: functional
Staphylococcus aureus [16] = assay: Antibacterial activity against Staphylococcus aureus 1199 assessed as bacterial growth inhibition incubated for 24 hrs by broth microdilution method; type: functional
Staphylococcus aureus [17] = assay: Antibacterial activity against Staphylococcus aureus 1199B overexpressing NorA efflux gene assessed as bacterial growth inhibition incubated for 24 hrs by broth microdilution method; type: functional
Staphylococcus aureus [18] = assay: Antibacterial activity against norfloxacin resistant Staphylococcus aureus 1199B overexpressing NorA assessed as bacterial growth inhibition incubated for 24 hrs by resazurin based microdilution assay; type: functional
Staphylococcus aureus [19] = assay: Antibacterial activity against norfloxacin resistant Staphylococcus aureus RN4220 overexpressing MsrA efflux pump gene assessed as bacterial growth inhibition incubated for 18 to 24 hrs by NCCLS protocol based microdilution method; type: functional; conditions: time 18-24 hrs
Staphylococcus aureus [20] = assay: Antibacterial activity against norfloxacin resistant Staphylococcus aureus 1199B overexpressing NorA efflux pump gene assessed as bacterial growth inhibition incubated for 18 to 24 hrs by NCCLS protocol based microdilution method; type: functional; conditions: time 18-24 hrs
Staphylococcus aureus [21] = assay: Antibacterial activity against norfloxacin resistant Staphylococcus aureus IS-58 overexpressing TetK efflux pump gene assessed as bacterial growth inhibition incubated for 18 to 24 hrs by NCCLS protocol based microdilution method; type: functional; conditions: time 18-24 hrs

Structure (SMILES): O=C1C[C@@H](c2ccc(O)cc2)Oc2cc(O)cc(O)c21
- MIC [1]: 16 µg/mL
- MIC [2]: 32 µg/mL

Structure (SMILES): C=CCc1ccccc1 [ALLYLBENZENE]
- MIC (Staphylococcus aureus [3]): > 1020 µg/mL
- MIC (Staphylococcus aureus [4]): > 1020 µg/mL

Structure (SMILES): CC1(C)C=Cc2c(cc3occ(-c4ccc(O)cc4)c(=O)c3c2O)O1 [ALPINUMISOFLAVONE]
- MIC (Staphylococcus aureus [5]): 32 µg/mL (≈ 95.1 µM)
- MIC (Staphylococcus aureus [6]): 32 µg/mL (≈ 95.1 µM)
- MIC (Staphylococcus aureus [7]): 32 µg/mL (≈ 95.1 µM)
- MIC (Staphylococcus aureus [8]): 32 µg/mL (≈ 95.1 µM)
- MIC (Staphylococcus aureus [9]): 32 µg/mL (≈ 95.1 µM)

Structure (SMILES): COc1ccc(-c2oc3cc(OC)c(OC)c(O)c3c(=O)c2OC)cc1OC [ARTEMETIN]
- MIC (Staphylococcus aureus [10]): 256 µg/mL (≈ 659 µM)

Structure (SMILES): Cc1ccc(C(C)C)cc1O [CARVACROL]
- MIC (Staphylococcus aureus [3]): 256 µg/mL (≈ 1700 µM)
- MIC (Staphylococcus aureus [4]): 256 µg/mL (≈ 1700 µM)
- MIC [11]: 25.4 µg/mL
- MIC [12]: 16 µg/mL
- MIC [13]: 32 µg/mL
- MIC [14]: 64 µg/mL

Structure (SMILES): C=CCc1ccc(O)c(OC)c1 [EUGENOL]
- MIC (Staphylococcus aureus [3]): 102 µg/mL (≈ 619 µM)
- MIC (Staphylococcus aureus [4]): 128 µg/mL (≈ 780 µM)

Structure (SMILES): O=c1c(O)c(-c2ccccc2)oc2cc(O)cc(O)c12 [GALANGIN]
- MIC (Staphylococcus aureus [15]): 125 µg/mL (≈ 463 µM)
- MIC (Staphylococcus aureus [16]): 125 µg/mL (≈ 463 µM)
- MIC (Staphylococcus aureus [17]): 250 µg/mL (≈ 925 µM)

Structure (SMILES): CC[n+]1c(-c2ccccc2)c2cc(N)ccc2c2ccc(N)cc21.[Br-] [HOMIDIUM BROMIDE]
- MIC (Staphylococcus aureus [18]): 32 µg/mL

Structure (SMILES): O=c1c(O)c(-c2ccc(O)cc2)oc2cc(O)cc(O)c12 [KAEMPFEROL]
- MIC (Staphylococcus aureus [15]): 125 µg/mL (≈ 437 µM)
- MIC (Staphylococcus aureus [16]): 125 µg/mL (≈ 437 µM)
- MIC (Staphylococcus aureus [17]): 250 µg/mL (≈ 873 µM)

Structure (SMILES): COc1c2occc2cc2ccc(=O)oc12 [METHOXSALEN]
- MIC (Staphylococcus aureus [19]): > 256 µg/mL
- MIC (Staphylococcus aureus [20]): > 256 µg/mL
- MIC (Staphylococcus aureus [21]): > 256 µg/mL

Structure (SMILES): C=CCc1cc(OC)c(O)c(OC)c1 [METHOXYEUGENOL]
- MIC (Staphylococcus aureus [3]): 32 µg/mL (≈ 165 µM)
- MIC (Staphylococcus aureus [4]): 128 µg/mL (≈ 659 µM)

Structure (SMILES): CCn1cc(C(=O)O)c(=O)c2cc(F)c(N3CCNCC3)cc21 [NORFLOXACIN]
- MIC (Staphylococcus aureus [10]): 32 µg/mL (≈ 100 µM)
- MIC (Staphylococcus aureus [18]): 64 µg/mL (≈ 200 µM)

Structure (SMILES): COc1cc(O)c2c(=O)c(OC)c(-c3ccc(O)c(OC)c3)oc2c1 [PACHYPODOL]
- MIC (Staphylococcus aureus [10]): 256 µg/mL (≈ 743 µM)

Structure (SMILES): CC(C)=CCOc1c2occc2cc2ccc(=O)oc12 [PENTOSALEN]
- MIC (Staphylococcus aureus [19]): > 256 µg/mL
- MIC (Staphylococcus aureus [20]): > 256 µg/mL
- MIC (Staphylococcus aureus [21]): > 256 µg/mL

Structure (SMILES): O=C1C[C@@H](c2ccccc2)Oc2cc(O)cc(O)c21 [PINOCEMBRIN]
- MIC (Staphylococcus aureus [15]): 250 µg/mL (≈ 976 µM)
- MIC (Staphylococcus aureus [16]): 250 µg/mL (≈ 976 µM)
- MIC (Staphylococcus aureus [17]): 500 µg/mL (≈ 1950 µM)

Structure (SMILES): COc1ccc(-c2coc3cc(O)cc(O)c3c2=O)cc1O [PRATENSEIN]
- MIC (Staphylococcus aureus [5]): 32 µg/mL (≈ 107 µM)
- MIC (Staphylococcus aureus [6]): 32 µg/mL (≈ 107 µM)
- MIC (Staphylococcus aureus [7]): 32 µg/mL (≈ 107 µM)
- MIC (Staphylococcus aureus [8]): 32 µg/mL (≈ 107 µM)
- MIC (Staphylococcus aureus [9]): 32 µg/mL (≈ 107 µM)

Structure (SMILES): Cc1ccc(C(C)C)c(O)c1 [THYMOL]
- MIC (Staphylococcus aureus [3]): 256 µg/mL (≈ 1700 µM)
- MIC (Staphylococcus aureus [4]): 256 µg/mL (≈ 1700 µM)
- MIC [11]: 25.4 µg/mL
- MIC [12]: 16 µg/mL
- MIC [13]: 32 µg/mL
- MIC [14]: 64 µg/mL
